Source: patent US20090012103A1, “SUBSTITUTED HETEROCYCLIC COMPOUNDS” (priority 2007, published 2009)

Biological target: wild-type human cardiac sodium channel, hNav1.5 (Homo sapiens, UniProt Q14524)
Assay: Late INa screening assay (late sodium current, PatchXpress whole cell patch clamp)
Type: cell-based
Conditions: compound at 10 μM; read-out: Late INa % blk

Sequence of wild-type human cardiac sodium channel, hNav1.5 (Q14524 whole entry): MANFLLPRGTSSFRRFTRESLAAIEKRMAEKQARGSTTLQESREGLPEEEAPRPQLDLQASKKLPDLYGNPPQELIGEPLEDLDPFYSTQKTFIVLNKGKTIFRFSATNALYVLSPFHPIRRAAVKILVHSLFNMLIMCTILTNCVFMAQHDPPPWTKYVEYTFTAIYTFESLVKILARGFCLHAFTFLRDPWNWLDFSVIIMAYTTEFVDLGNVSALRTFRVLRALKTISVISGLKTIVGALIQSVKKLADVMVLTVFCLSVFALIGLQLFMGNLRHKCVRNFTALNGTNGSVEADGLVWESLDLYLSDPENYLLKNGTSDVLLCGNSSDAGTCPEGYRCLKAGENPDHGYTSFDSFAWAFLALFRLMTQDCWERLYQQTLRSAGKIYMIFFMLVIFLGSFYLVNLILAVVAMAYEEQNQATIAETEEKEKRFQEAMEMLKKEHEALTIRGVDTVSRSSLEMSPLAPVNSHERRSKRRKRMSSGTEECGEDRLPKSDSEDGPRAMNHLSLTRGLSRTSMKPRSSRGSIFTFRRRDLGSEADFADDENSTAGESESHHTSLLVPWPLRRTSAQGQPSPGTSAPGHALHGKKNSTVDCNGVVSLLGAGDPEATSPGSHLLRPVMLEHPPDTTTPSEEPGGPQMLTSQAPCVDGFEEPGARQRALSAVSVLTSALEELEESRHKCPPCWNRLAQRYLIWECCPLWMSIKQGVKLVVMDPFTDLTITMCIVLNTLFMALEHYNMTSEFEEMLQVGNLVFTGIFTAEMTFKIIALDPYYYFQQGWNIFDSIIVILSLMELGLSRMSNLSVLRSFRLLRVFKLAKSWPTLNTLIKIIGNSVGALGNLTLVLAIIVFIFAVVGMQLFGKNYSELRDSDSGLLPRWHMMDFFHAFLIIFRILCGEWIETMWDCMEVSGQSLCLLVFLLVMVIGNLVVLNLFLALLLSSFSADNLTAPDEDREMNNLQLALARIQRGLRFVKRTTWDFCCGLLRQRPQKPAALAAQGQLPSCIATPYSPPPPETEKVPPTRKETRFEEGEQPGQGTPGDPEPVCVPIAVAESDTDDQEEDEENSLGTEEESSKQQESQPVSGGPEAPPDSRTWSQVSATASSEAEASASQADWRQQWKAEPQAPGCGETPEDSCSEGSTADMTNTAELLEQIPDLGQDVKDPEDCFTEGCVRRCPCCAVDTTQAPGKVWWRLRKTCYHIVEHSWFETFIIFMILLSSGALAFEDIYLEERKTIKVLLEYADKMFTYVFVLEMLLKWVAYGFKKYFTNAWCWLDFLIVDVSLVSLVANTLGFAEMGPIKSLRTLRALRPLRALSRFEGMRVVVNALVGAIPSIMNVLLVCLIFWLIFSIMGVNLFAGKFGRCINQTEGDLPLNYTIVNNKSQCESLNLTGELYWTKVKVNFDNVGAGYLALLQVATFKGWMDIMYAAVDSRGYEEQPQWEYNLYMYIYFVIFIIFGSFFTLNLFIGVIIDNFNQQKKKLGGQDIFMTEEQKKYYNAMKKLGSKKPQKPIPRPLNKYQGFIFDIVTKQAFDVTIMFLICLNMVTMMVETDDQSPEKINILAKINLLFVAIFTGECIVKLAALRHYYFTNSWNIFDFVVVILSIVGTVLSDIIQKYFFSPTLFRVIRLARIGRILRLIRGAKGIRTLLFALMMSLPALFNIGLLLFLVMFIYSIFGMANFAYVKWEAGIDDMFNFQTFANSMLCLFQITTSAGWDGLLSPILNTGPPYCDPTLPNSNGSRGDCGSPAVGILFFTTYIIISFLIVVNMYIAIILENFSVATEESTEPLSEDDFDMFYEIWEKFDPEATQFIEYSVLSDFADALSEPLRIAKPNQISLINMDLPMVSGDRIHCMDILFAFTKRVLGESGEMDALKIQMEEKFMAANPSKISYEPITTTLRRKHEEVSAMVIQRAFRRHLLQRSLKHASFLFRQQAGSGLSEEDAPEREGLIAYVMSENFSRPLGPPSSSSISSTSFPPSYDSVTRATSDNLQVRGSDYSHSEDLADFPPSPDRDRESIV

**Q.** With CC1=C(C(=O)OCc2ccccc2)C(c2cncs2)n2nnnc2N1 (centres unmarked) [PT-365, benzyl 5-methyl-7-(thiazol-5-yl)-4,7-dihydrotetrazolo[1,5-a]pyrimidine-6-carboxylate] as the compound, how does the inhibition at 10 µM read?
**A.** 26.9%

**Q.** For O=C1CCCC2=C1C(c1cccc3ccccc13)n1nnnc1N2 (centres unmarked) [PT-072, 9-(naphthalen-1-yl)-5,6,7,9-tetrahydrotetrazolo[5,1-b]quinazolin-8(4H)-one], which inhibition at 10 µM is on record?
**A.** -0.9%

**Q.** For CC1=C(C(=O)N2CCCCC2)C(c2cccc3ccccc23)C2=C(CCCC2=O)N1 (centres unmarked) [PT-265, 2-methyl-4-(naphthalen-1-yl)-3-(piperidine-1-carbonyl)-4,6,7,8-tetrahydroquinolin-5(1H)-one], which inhibition at 10 µM is on record?
**A.** 18.6%

**Q.** How did the inhibition at 10 µM turn out when CCOC(=O)C1=C(C)Nc2[nH]ncc2C1c1cccc2ccccc12 (centres unmarked) [PT-075, ethyl 6-methyl-4-(naphthalen-1-yl)-4,7-dihydro-1H-pyrazolo[3,4-b]pyridine-5-carboxylate] was run?
**A.** 26.5%

**Q.** CC1=C(C(=O)OCc2ccccc2)C(c2ccc(C(=O)O)cc2)n2nnnc2N1 (centres unmarked) [PT-299, 4-(6-(benzyloxycarbonyl)-5-methyl-4,7-dihydrotetrazolo[1,5-a]pyrimidin-7-yl)benzoic acid] was tested. Which inhibition at 10 µM did it give?
**A.** 6.7%

**Q.** CC1=C(C(=O)OCc2ccccc2)C(c2cnc(N3CCN(C)CC3)s2)n2nnnc2N1 (centres unmarked) [PT-341, benzyl 5-methyl-7-(2-(4-methylpiperazin-1-yl)thiazol-5-yl)-4,7-dihydrotetrazolo[1,5-a]pyrimidine-6-carboxylate] was tested. Which inhibition at 10 µM did it give?
**A.** 23.3%

**Q.** For CC1=C(C(=O)N[C@@H](C)c2ccccc2)C(c2cccc3ccccc23)n2nnnc2N1 (stereo partly drawn) [PT-071, 5-methyl-7-(naphthalen-1-yl)-N-((S)-1-phenylethyl)-4,7-dihydrotetrazolo[1,5-a]pyrimidine-6-carboxamide], which inhibition at 10 µM is on record?
**A.** 16.3%

**Q.** Which inhibition at 10 µM does the source give for CCOC(=O)C1=C(C)Nc2ccnn2C1c1ccccc1OCCN(C)C (centres unmarked) [PT-478, ethyl 7-(2-(2-(dimethylamino)ethoxy)phenyl)-5-methyl-4,7-dihydropyrazolo[1,5-a]pyrimidine-6-carboxylate] here?
**A.** 34.3%

**Q.** CCOC(=O)C1=C(C)N(CC(=O)Nc2c(C)cccc2C)c2nnnn2C1c1ccccc1Br (centres unmarked) [PT-490, ethyl 7-(2-bromophenyl)-4-(2-(2,6-dimethylphenylamino)-2-oxoethyl)-5-methyl-4,7-dihydrotetrazolo[1,5-a]pyrimidine-6-carboxylate] was tested. Which inhibition at 10 µM did it give?
**A.** 7.3%

**Q.** With CCOC(=O)C1=C(C)NC(C)=C(C(=O)OCC)C1c1ccc(-c2ccccc2C(F)(F)F)o1 [PT-119, diethyl 2,6-dimethyl-4-(5-(2-(trifluoromethyl)phenyl)furan-2-yl)-1,4-dihydropyridine-3,5-dicarboxylate] as the compound, how does the inhibition at 10 µM read?
**A.** 3.8%

**Q.** For CCOC(=O)C1=C(C)NC2=C(C(=O)CCC2)C1c1ccc(N(C)C)c2ccccc12 (centres unmarked) [PT-139, ethyl 4-(4-(dimethylamino)naphthalen-1-yl)-2-methyl-5-oxo-1,4,5,6,7,8-hexahydroquinoline-3-carboxylate], which inhibition at 10 µM is on record?
**A.** 21.8%

**Q.** With O=C1OCC2=C1C(c1cccc3ccccc13)c1cnn(-c3ccccc3)c1N2 (centres unmarked) [PT-082, 4-(naphthalen-1-yl)-1-phenyl-7,8-dihydro-1H-furo[3,4-e]pyrazolo[3,4-b]pyridin-5(4H)-one] as the compound, how does the inhibition at 10 µM read?
**A.** 43.1%

**Q.** Which inhibition at 10 µM does the source give for CCOC(=O)C1=C(C)Nc2nnnn2C1c1cccc(C2C(C(=O)OCC)=C(C)Nc3nnnn32)c1 (centres unmarked) [PT-202, diethyl 7,7′-(1,3-phenylene)bis(5-methyl-4,7-dihydrotetrazolo[1,5-a]pyrimidine-6-carboxylate)] here?
**A.** 9.7%

**Q.** For CCOC(=O)C1=C(C)Nc2nnnn2C1c1ccccc1Oc1ccc(C#N)cc1 (centres unmarked) [PT-485, ethyl 7-(2-(4-cyanophenoxy)phenyl)-5-methyl-4,7-dihydrotetrazolo[1,5-a]pyrimidine-6-carboxylate], which inhibition at 10 µM is on record?
**A.** 5.2%

**Q.** O=C1OCc2nc3[nH]ncc3c(-c3cccc4ccccc34)c21 [PT-301, 4-(naphthalen-1-yl)-1H-furo[3,4-e]pyrazolo[3,4-b]pyridin-5(7H)-one] was tested. Which inhibition at 10 µM did it give?
**A.** 21.6%

**Q.** CCOC(=O)C1=C(C)N(CC#N)c2nnnn2C1c1cccc2ccccc12 (centres unmarked) [PT-456, ethyl 4-(cyanomethyl)-5-methyl-7-(naphthalen-1-yl)-4,7-dihydrotetrazolo[1,5-a]pyrimidine-6-carboxylate] was tested. Which inhibition at 10 µM did it give?
**A.** 2.7%

**Q.** Which inhibition at 10 µM does the source give for CCOC(=O)c1c(C)nc2[nH]ncc2c1-c1ccccc1-c1cccc(C(C)=O)c1 [PT-450, ethyl 4-(3′-acetylbiphenyl-2-yl)-6-methyl-1H-pyrazolo[3,4-b]pyridine-5-carboxylate] here?
**A.** 7.3%

**Q.** With CC1=C(C(=O)OCc2ccc(Cn3cccn3)cc2)C(c2ccccc2OCc2ccccc2)n2nnnc2N1 (centres unmarked) [PT-282, 4-((1H-pyrazol-1-yl)methyl)benzyl 7-(2-(benzyloxy)phenyl)-5-methyl-4,7-dihydrotetrazolo[1,5-a]pyrimidine-6-carboxylate] as the compound, how does the inhibition at 10 µM read?
**A.** 30.2%

**Q.** For CC1=C(C(=O)OCc2ccccc2)C(c2ccc(S(C)(=O)=O)cc2[N+](=O)[O-])n2nnnc2N1 (centres unmarked) [PT-353, benzyl 5-methyl-7-(4-(methylsulfonyl)-2-nitrophenyl)-4,7-dihydrotetrazolo[1,5-a]pyrimidine-6-carboxylate], which inhibition at 10 µM is on record?
**A.** 5.8%

**Q.** How did the inhibition at 10 µM turn out when CC1=C(C(=O)OCc2ccccc2)[C@@H](c2ccccc2-c2ccc(C#N)cc2)n2nnnc2N1 [PT-243, (R)-benzyl 7-(4′-cyanobiphenyl-2-yl)-5-methyl-4,7-dihydrotetrazolo[1,5-a]pyrimidine-6-carboxylate] was run?
**A.** 91.5%

**Q.** CCC(OC(=O)C1=C(C)Nc2nnnn2C1c1cccc2ccccc12)c1ccccc1 (centres unmarked) [PT-063, 1-phenylpropyl 5-methyl-7-(naphthalen-1-yl)-4,7-dihydrotetrazolo[1,5-a]pyrimidine-6-carboxylate] was tested. Which inhibition at 10 µM did it give?
**A.** 47.5%

**Q.** How did the inhibition at 10 µM turn out when CC1=C(C(=O)OCc2ccccc2)C(c2ccc(-c3nnn[nH]3)cc2)n2nnnc2N1 (centres unmarked) [PT-403, benzyl 7-(4-(1H-tetrazol-5-yl)phenyl)-5-methyl-4,7-dihydrotetrazolo[1,5-a]pyrimidine-6-carboxylate] was run?
**A.** 9.7%

**Q.** How did the inhibition at 10 µM turn out when CC1=C(C(=O)OCc2ccccc2)C(c2cccc(-c3ccccc3)c2)n2nnnc2N1 (centres unmarked) [PT-026, benzyl 7-(biphenyl-3-yl)-5-methyl-4,7-dihydrotetrazolo[1,5-a]pyrimidine-6-carboxylate] was run?
**A.** 10.3%

**Q.** With CC1=C(C(=O)OCc2ccccc2)C(c2cccc3c2OCCO3)n2nnnc2N1 (centres unmarked) [PT-036, benzyl 7-(2,3-dihydrobenzo[b][1,4]dioxin-5-yl)-5-methyl-4,7-dihydrotetrazolo[1,5-a]pyrimidine-6-carboxylate] as the compound, how does the inhibition at 10 µM read?
**A.** 41%

**Q.** With CC1=C(C(=O)OCc2ccccc2)C(c2ccccc2-c2cccc(C(=O)O)c2)n2nnnc2N1 (centres unmarked) [PT-253, 2′-(6-(benzyloxycarbonyl)-5-methyl-4,7-dihydrotetrazolo[1,5-a]pyrimidin-7-yl)biphenyl-3-carboxylic acid] as the compound, how does the inhibition at 10 µM read?
**A.** 9.1%

**Q.** Which inhibition at 10 µM does the source give for CCOC(=O)C1=C(C)Nc2[nH]ncc2C1c1c(OC)cccc1OC (centres unmarked) [PT-446, ethyl 4-(2,6-dimethoxyphenyl)-6-methyl-4,7-dihydro-1H-pyrazolo[3,4-b]pyridine-5-carboxylate] here?
**A.** 7%

**Q.** Which inhibition at 10 µM does the source give for COc1ccc(C2C(C(=O)OCc3ccccc3)=C(C)Nc3nnnn32)c(OCc2ccccc2)c1 (centres unmarked) [PT-380, benzyl 7-(2-(benzyloxy)-4-methoxyphenyl)-5-methyl-4,7-dihydrotetrazolo[1,5-a]pyrimidine-6-carboxylate] here?
**A.** 70.9%

**Q.** Which inhibition at 10 µM does the source give for CCOC(=O)C1=C(C)NC(C)=C(C(=O)OCC)C1c1ccc(C(=O)O)s1 [PT-112, 5-(3,5-bis(ethoxycarbonyl)-2,6-dimethyl-1,4-dihydropyridin-4-yl)thiophene-2-carboxylic acid] here?
**A.** -24.9%

**Q.** For COC(=O)C1=C(C)Nc2nnnn2C1c1ccc(Br)s1 (centres unmarked) [PT-522, methyl 7-(5-bromothiophen-2-yl)-5-methyl-4,7-dihydrotetrazolo[1,5-a]pyrimidine-6-carboxylate], which inhibition at 10 µM is on record?
**A.** 37.7%

**Q.** For CC1=C(C(=O)OCc2ccccc2)C(c2cnc(N3CCOCC3)s2)n2nnnc2N1 (centres unmarked) [PT-346, benzyl 5-methyl-7-(2-morpholinothiazol-5-yl)-4,7-dihydrotetrazolo[1,5-a]pyrimidine-6-carboxylate], which inhibition at 10 µM is on record?
**A.** 23%

**Q.** With CCOC(=O)C1=C(C)Nc2nnnn2C1c1ccccc1Oc1cccc(C(=O)O)c1 (centres unmarked) [PT-272, 3-(2-(6-(ethoxycarbonyl)-5-methyl-4,7-dihydrotetrazolo[1,5-a]pyrimidin-7-yl)phenoxy)benzoic acid] as the compound, how does the inhibition at 10 µM read?
**A.** -4.9%

**Q.** How did the inhibition at 10 µM turn out when CC1=C(C(=O)OCc2ccccc2)C(c2cccc3ccccc23)n2nnnc2N1CC(=O)O (centres unmarked) [PT-257, 2-(6-(benzyloxycarbonyl)-5-methyl-7-(naphthalen-1-yl)tetrazolo[1,5-a]pyrimidin-4(7H)-yl)acetic acid] was run?
**A.** 7.4%

**Q.** How did the inhibition at 10 µM turn out when CC1=C(C(=O)OCc2ccc(I)cc2)C(c2cccc3ccccc23)n2nnnc2N1 (centres unmarked) [PT-029, 4-iodobenzyl 5-methyl-7-(naphthalen-1-yl)-4,7-dihydrotetrazolo[1,5-a]pyrimidine-6-carboxylate] was run?
**A.** 52.1%

**Q.** How did the inhibition at 10 µM turn out when COc1cc(OC)c(C2C(C(=O)OCc3ccccc3)=C(C)Nc3nnnn32)c(OC)c1 (centres unmarked) [PT-343, benzyl 5-methyl-7-(2,4,6-trimethoxyphenyl)-4,7-dihydrotetrazolo[1,5-a]pyrimidine-6-carboxylate] was run?
**A.** 34.4%

**Q.** How did the inhibition at 10 µM turn out when CCOC(=O)C1=C(C)Nc2[nH]ncc2C1c1ccccc1-c1ccc(NS(C)(=O)=O)cc1 (centres unmarked) [PT-471, ethyl 6-methyl-4-(4′-(methylsulfonamido)biphenyl-2-yl)-4,7-dihydro-1H-pyrazolo[3,4-b]pyridine-5-carboxylate] was run?
**A.** 30%

**Q.** CCOC(=O)C1=C(C)Nc2nnnn2C1c1ccc(OC)c2ccccc12 (centres unmarked) [PT-504, ethyl 7-(4-methoxynaphthalen-1-yl)-5-methyl-4,7-dihydrotetrazolo[1,5-a]pyrimidine-6-carboxylate] was tested. Which inhibition at 10 µM did it give?
**A.** 28.2%

**Q.** For O=C1OCc2nc3c(cnn3-c3ccccc3)c(-c3cccc4ccccc34)c21 [PT-302, 4-(naphthalen-1-yl)-1-phenyl-1H-furo[3,4-e]pyrazolo[3,4-b]pyridin-5(7H)-one], which inhibition at 10 µM is on record?
**A.** 50.4%

Same assay, conditions: read-out: Late INa % blk

**Q.** For CC1=C(C(=O)OCc2ccccc2)C(c2cccc(Oc3ccccc3)c2)n2nnnc2N1 (centres unmarked) [PT-024, benzyl 5-methyl-7-(3-phenoxyphenyl)-4,7-dihydrotetrazolo[1,5-a]pyrimidine-6-carboxylate], which inhibition at 10 µM is on record?
**A.** 72.6%
